Assay results as given in US11739068B2, “Polymorphs of N-[(3-fluoro-4-methoxypyridin-2-yl)methyl]-3-(methoxymethyl)-1-({4-[(2-oxopyridin-1-yl)methyl]phenyl}methyl)pyrazole-4-carboxamide and salts thereof” (KALVISTA PHARMACEUTICALS LIMITED, priority 2016, dated 2023).

Experiments:
[1] = in vivo; cited from earlier work
Slurry studies = format: physicochemical; settings: 90/10 IPA/water, ambient temperature, 72 hrs
Experimental: Form 1 (20 mg) was suspended in 90/10 IPA/water (200 μL or […]) and shaken at ambient temperature for 72 hrs. The supernatant was evaporated rather than filtered due to the small volume and the resulting solid was examined by XRPD (FIG. 6).
The supernatant was evaporated rather than filtered due to the small volume and the resulting solid was examined by XRPD (FIG. 28).
The supernatant was evaporated rather than filtered due to the small volume and the resulting solid was examined by XRPD (FIG. 34).
The supernatant was evaporated rather than filtered due to the small volume and the resulting solid was examined by XRPD (FIG. 40).

[2] = Gravimetric Vapour Sorption (GVS); format: physicochemical
Experimental: Gravimetric Vapour Sorption (GVS) data were collected using the following method: Approximately 10 mg of sample was placed into a wire-mesh vapour sorption balance pan and loaded into an ‘IgaSorp’ vapour sorption balance (Hiden Analytical Instruments). The sample was then dried by maintaining a 0% humidity environment until no further weight change was recorded. Subsequently, the sample was then subjected to a ramping profile from 0-90% RH at 10% RH increments, maintaining the sample at each step until equilibration had been attained (99% step completion). Upon reaching equilibration, the % RH within the apparatus was ramped to the next step and the equilibration procedure repeated. After completion of the sorption cycle, the sample was then dried using the same procedure. The weight change during the sorption/desorption cycles were then monitored, allowing for the hygroscopic nature of the sample to be determined.

[3] = Stability study of Form 1 (double polyethylene bags, HDPE bottle); format: physicochemical; settings: for Change in the XRPD diffractogram on storage: after 1 month and 3 months
Experimental: Further evidence of the suitability of the crystalline forms of N-[(3-fluoro-4-methoxypyridin-2-yl)methyl]-3-(methoxymethyl)-1-({4-[(2-oxopyridin-1-yl)methyl]phenyl}methyl)pyrazole-4-carboxamide for pharmaceutical development is provided by the stability data disclosed herein. Two samples of Form 1 of N-[(3-fluoro-4-methoxypyridin-2-yl)methyl]-3-(methoxymethyl)-1-({4-[(2-oxopyridin-1-yl)methyl]phenyl}methyl)pyrazole-4-carboxamide were stored at 25° C./60% RH and 40° C./75% RH packed in double polyethylene bags and sealed in a HDPE bottle.
A sample of Form 1 was packed in double polyethylene bags and sealed in a HDPE bottle and stored at conditions of 25° C./60% RH. The sample was reanalysed after 1 month and 3 months by XRPD (using Method B). No change in the XRPD diffractogram was observed when the sample was stored at 25° C./60% RH after either 1 month or 3 months.
Further tests on the sample of Form 1 stored at 25° C./60% RH were carried out as described in the table below:
A second sample of Form 1 was packed in double polyethylene bags and sealed in a HDPE bottle and stored under accelerated stability conditions of 40° C./75% RH. The sample was reanalysed after 1 month and 3 months by XRPD (using Method B). No change in the XRPD diffractogram was observed when the sample was stored at 40° C./75% RH after either 1 month or 3 months.
Further tests on the sample of Form 1 stored at 40° C./75% RH were carried out as described in the table below: […]

[4] = Visual aqueous solubility; format: physicochemical; settings: water, thermodynamic from solid
Experimental: Form 1 (10 mg) was weighed into a glass vial and water was added in 100 μL portions up to 3 mL then 1 mL portions thereafter. Solubility was assessed visually following a brief period of equilibration.
Form 18 (10 mg) was weighed into a glass vial and water was added in 100 μL portions up to 3 mL then 1 mL portions thereafter. Solubility was assessed visually following a brief period of equilibration.
Form 8 (10 mg) was weighed into a glass vial and water was added in 100 μL portions up to 3 mL then 1 mL portions thereafter. Solubility was assessed visually following a brief period of equilibration.
Form 15 (10 mg) was weighed into a glass vial and water was added in 100 μL portions up to 3 mL then 1 mL portions thereafter. Solubility was assessed visually following a brief period of equilibration.
Form 16 (10 mg) was weighed into a glass vial and water was added in 100 μL portions up to 3 mL then 1 mL portions thereafter. Solubility was assessed visually following a brief period of equilibration.

Human KLK1 = molecular target: T1, Human KLK1 (Homo sapiens, UniProt P06870); assay: Determination of the IC50 for KLK1; format: biochemical; settings: 25° C., fluorogenic substrate H-DVal-Leu-Arg-AFC
T1 construct: purchased Callbiochem
T1 sequence (P06870 25-262): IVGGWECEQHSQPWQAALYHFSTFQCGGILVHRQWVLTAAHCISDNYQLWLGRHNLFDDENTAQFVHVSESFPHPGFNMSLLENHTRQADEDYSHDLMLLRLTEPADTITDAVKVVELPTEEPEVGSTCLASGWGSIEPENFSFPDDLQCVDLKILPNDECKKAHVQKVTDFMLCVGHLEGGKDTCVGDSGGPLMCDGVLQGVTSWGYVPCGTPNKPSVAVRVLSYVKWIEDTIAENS
Experimental: KLK1 inhibitory activity in vitro was determined using standard published methods (see e.g. Johansen et al., Int. J. Tiss. Reac. 1986, 8, 185; Shori et al., Biochem. Pharmacol., 1992, 43, 1209; Sturzebecher et al., Biol. Chem. Hoppe-Seyler, 1992, 373, 1025). Human KLK1 (Callbiochem) was incubated at 25° C. with the fluorogenic substrate H-DVal-Leu-Arg-AFC and various concentrations of the test compound. Residual enzyme activity (initial rate of reaction) was determined by measuring the change in […] at 410 nm and the IC50 value for the test compound was determined.

[5] = test system: LPS-induced disseminated intravascular coagulation; settings: cited from earlier work
[6] = test system: intrinsic pathway of coagulation; settings: in vitro; cited from earlier work
blood = blood contacted with inhibitor; cited from earlier work
[7] = in vivo; cited from earlier work; remark: listed apart in the source

C=Cc1cc(C(=O)Nc2ccc(C(=N)N)cc2)c(-c2ccc(C(=O)NCC3CC3)nc2C(=O)O)cc1OC [BCX4161]
Oral availability [1]: orally available

COCc1nn(Cc2ccc(Cn3ccccc3=O)cc2)cc1C(=O)NCc1nccc(OC)c1F [Form 1, N-[(3-fluoro-4-methoxypyridin-2-yl)methyl]-3-(methoxymethyl)-1-({4-[(2-oxopyridin-1-yl)methyl]phenyl}methyl)pyrazole-4-carboxamide]
XRPD of solid after slurry versus starting form (Slurry studies): different to that of FIG. 2a | %-Wt (dry basis) ([2]; adsorption, about 0 %-RH): 0.04722% | %-Wt (dry basis) ([2]; adsorption, about 10 %-RH): 0.23% | %-Wt (dry basis) ([2]; adsorption, about 20 %-RH): 0.3541% | %-Wt (dry basis) ([2]; adsorption, about 30 %-RH): 0.7126% | %-Wt (dry basis) ([2]; adsorption, about 40 %-RH): 0.825% | %-Wt (dry basis) ([2]; adsorption, about 50 %-RH): 1.207% | %-Wt (dry basis) ([2]; adsorption, about 60 %-RH): 1.699% | %-Wt (dry basis) ([2]; adsorption, about 70 %-RH): 1.912% | %-Wt (dry basis) ([2]; adsorption, about 80 %-RH): 2.186% | %-Wt (dry basis) ([2]; adsorption, about 90 %-RH): 3.226% | %-Wt (dry basis) ([2]; desorption, about 0 %-RH): 0.000368% | %-Wt (dry basis) ([2]; desorption, about 5 %-RH): 0.1269% | %-Wt (dry basis) ([2]; desorption, about 15 %-RH): 0.5017% | %-Wt (dry basis) ([2]; desorption, about 25 %-RH): 0.7008% | %-Wt (dry basis) ([2]; desorption, about 35 %-RH): 1.017% | %-Wt (dry basis) ([2]; desorption, about 45 %-RH): 1.525% | %-Wt (dry basis) ([2]; desorption, about 55 %-RH): 1.685% | %-Wt (dry basis) ([2]; desorption, about 65 %-RH): 1.865% | %-Wt (dry basis) ([2]; desorption, about 75 %-RH): 2.116% | %-Wt (dry basis) ([2]; desorption, about 85 %-RH): 2.547% | Increase in water content by GVS (hygroscopicity, in words) ([2]; up to 70% relative humidity): only a relatively gradual increase in water content | Appearance ([3]; 25° C./60% RH, 1 month): Off-white | Assay by HPLC (on an anhydrous and solvent free basis) ([3]; 25° C./60% RH, 1 month): 99.5 % w/w | DSC Tonset ([3]; 25° C./60% RH, 1 month): 151.1 °C | DSC Tpeak ([3]; 25° C./60% RH, 1 month): 152.4 °C | HPLC assay (on an “as is” basis) ([3]; 25° C./60% RH, 1 month): 99.4 % w/w | Polymorph by XRPD ([3]; 25° C./60% RH, 1 month): Conforms to | Purity by HPLC ([3]; 25° C./60% RH, 1 month): 99.62 area % | Total impurities ([3]; 25° C./60% RH, 1 month): 0.38 area % | Water by Karl Fischer analysis ([3]; 25° C./60% RH, 1 month): <0.1 % w/w | Appearance ([3]; 25° C./60% RH, 3 months): Off-white | Assay by HPLC (on an anhydrous and solvent free basis) ([3]; 25° C./60% RH, 3 months): 99.6 % w/w | DSC Tonset ([3]; 25° C./60% RH, 3 months): 150.8 °C | DSC Tpeak ([3]; 25° C./60% RH, 3 months): 152.2 °C | HPLC assay (on an “as is” basis) ([3]; 25° C./60% RH, 3 months): 99.5 % w/w | Polymorph by XRPD ([3]; 25° C./60% RH, 3 months): Conforms to | Purity by HPLC ([3]; 25° C./60% RH, 3 months): 99.70 area % | Total impurities ([3]; 25° C./60% RH, 3 months): 0.30 area % | Water by Karl Fischer analysis ([3]; 25° C./60% RH, 3 months): <0.1 % w/w | Appearance ([3]; 25° C./60% RH, Initial): Off-white | Assay by HPLC (on an anhydrous and solvent free basis) ([3]; 25° C./60% RH, Initial): 101.0 % w/w | DSC Tonset ([3]; 25° C./60% RH, Initial): 151.3 °C | DSC Tpeak ([3]; 25° C./60% RH, Initial): 152.9 °C | HPLC assay (on an “as is” basis) ([3]; 25° C./60% RH, Initial): 100.9 % w/w | Polymorph by XRPD ([3]; 25° C./60% RH, Initial): Conforms to | Purity by HPLC ([3]; 25° C./60% RH, Initial): 99.70 area % | Total impurities ([3]; 25° C./60% RH, Initial): 0.30 area % | Water by Karl Fischer analysis ([3]; 25° C./60% RH, Initial): <0.1 % w/w | Change in the XRPD diffractogram on storage ([3]; 25° C./60% RH): no change | Appearance ([3]; 40° C./75% RH, 1 month): Off-white | Assay by HPLC (on an anhydrous and solvent free basis) ([3]; 40° C./75% RH, 1 month): 99.5 % w/w | DSC Tonset ([3]; 40° C./75% RH, 1 month): 151.1 °C | DSC Tpeak ([3]; 40° C./75% RH, 1 month): 152.3 °C | HPLC assay (on an “as is” basis) ([3]; 40° C./75% RH, 1 month): 99.4 % w/w | Polymorph by XRPD ([3]; 40° C./75% RH, 1 month): Conforms to | Purity by HPLC ([3]; 40° C./75% RH, 1 month): 99.57 area % | Total impurities ([3]; 40° C./75% RH, 1 month): 0.43 area % | Water by Karl Fischer analysis ([3]; 40° C./75% RH, 1 month): <0.1 % w/w | Appearance ([3]; 40° C./75% RH, 3 months): Off-white | Assay by HPLC (on an anhydrous and solvent free basis) ([3]; 40° C./75% RH, 3 months): 100.0 % w/w | DSC Tonset ([3]; 40° C./75% RH, 3 months): 150.6 °C | DSC Tpeak ([3]; 40° C./75% RH, 3 months): 152.5 °C | HPLC assay (on an “as is” basis) ([3]; 40° C./75% RH, 3 months): 99.9 % w/w | Polymorph by XRPD ([3]; 40° C./75% RH, 3 months): Conforms to | Purity by HPLC ([3]; 40° C./75% RH, 3 months): 99.71 area % | Total impurities ([3]; 40° C./75% RH, 3 months): 0.29 area % | Water by Karl Fischer analysis ([3]; 40° C./75% RH, 3 months): 0.1 % w/w | Appearance ([3]; 40° C./75% RH, Initial): Off-white | Assay by HPLC (on an anhydrous and solvent free basis) ([3]; 40° C./75% RH, Initial): 101.0 % w/w | DSC Tonset ([3]; 40° C./75% RH, Initial): 151.3 °C | DSC Tpeak ([3]; 40° C./75% RH, Initial): 152.9 °C | HPLC assay (on an “as is” basis) ([3]; 40° C./75% RH, Initial): 100.9 % w/w | Polymorph by XRPD ([3]; 40° C./75% RH, Initial): Conforms to | Purity by HPLC ([3]; 40° C./75% RH, Initial): 99.70 area % | Total impurities ([3]; 40° C./75% RH, Initial): 0.30 area % | Water by Karl Fischer analysis ([3]; 40° C./75% RH, Initial): <0.1 % w/w | Change in the XRPD diffractogram on storage ([3]; 40° C./75% RH): no change | solubility [4]: < 500 µg/mL

COCc1nn(Cc2ccc(Cn3ccccc3=O)cc2)cc1C(=O)NCc1nccc(OC)c1F [N-[(3-fluoro-4-methoxypyridin-2-yl)methyl]-3-(methoxymethyl)-1-({4-[(2-oxopyridin-1-yl)methyl]phenyl}methyl)pyrazole-4-carboxamide]
IC50 (Human KLK1): > 40 µM

Cl.NCC1CCC(C(=O)N[C@@H](Cc2ccccc2)C(=O)Nc2ccc(CC(=O)O)cc2)CC1 (stereo partly shown) [PKSI-527]
Effect on platelet count, fibrinogen level and FDP level [5]: significantly suppressed the decrease in platelet count and fibrinogen level as well as the increase in FDP level

Ecallantide
Contact activated induced coagulation [6]: delay contact activated induced coagulation | Activated clotting time (ACT) (blood): increase in activated clotting time (ACT) | Anaphylactic reactions [7]: risks of anaphylactic reactions
